Source: PubChem BioAssay (NCI)
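Grown in 96-well plates, cells were treated for 48 hours with each compound at five concentrations. Insufficient inhibition: endpoint recorded as highest concentration tested. Here, GI50 denotes the concentration required for 50% inhibition of growth. At the TGI there is no net growth.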

How the values were obtained:
Test in all cases: NCI-60 cell line screen, 48 h
[1] = test system: NCI-H23 lung
[2] = test system: NCI/ADR-RES ovarian
[3] = test system: DMS 273 small cell lung
[4] = test system: EKVX NSCLC
[5] = test system: HOP-62 NSCLC
[6] = test system: M19-MEL melanoma
[7] = test system: XF 498 CNS
[8] = test system: HCC-2998 colon
[9] = test system: SF-295 CNS
[10] = test system: NCI-H460 lung

Row | Compound | TGI [1] | TGI [2] | TGI [3] | TGI [4] | TGI [5] | TGI [6] | TGI [7] | TGI [8] | TGI [9] | TGI [10] | GI50 [2] | GI50 [3] | GI50 [4] | GI50 [7] | GI50 [8] | GI50 [9] | GI50 [10]
1 | Cc1ccc(NC(=O)CCc2nnc3s/c(=C\C=C\c4ccccc4)c(=O)n23)cc1 | > 100 µM | > 78.6 µM | > 100 µM | > 100 µM | > 100 µM | > 100 µM | > 100 µM | > 100 µM | > 100 µM | > 100 µM |  |  |  |  |  |  | 
2 | Cn1c(=O)nc2n(-c3ccc(F)c(F)c3)c3ccccc3nc-2c1=O | 29.9 µM |  | 36.9 µM | 17.7 µM | > 100 µM | 3.44 µM | 36.2 µM | 23.7 µM | 32.4 µM | 35.5 µM |  |  |  |  |  |  | 
3 | CSc1ccc(Cc2cc(C(C)(C)C)cc(C(C)(C)C)c2O)cc1 | 28.7 µM |  | 26.7 µM | 32.1 µM | 35 µM | 31.1 µM | 31.8 µM | 32.5 µM | 31.6 µM | 27.2 µM |  |  |  |  |  |  | 
4 | Cc1ccccc1SC(/C=C/NNC1=NC(c2ccccc2)C(c2ccccc2)=NN1)c1ccccc1 (stereo unspecified) | 50.2 µM |  | > 100 µM | > 100 µM | 49.4 µM | > 100 µM | 60.4 µM | > 100 µM | 57.7 µM | > 100 µM |  |  |  |  |  |  | 
5 | CON1C(=O)C2(CCCCC2)C(=O)C12C=CC(C)CC2 (stereo unspecified) | > 100 µM |  | > 100 µM | > 100 µM | > 100 µM | > 100 µM | > 100 µM | > 100 µM | > 100 µM | > 100 µM |  |  |  |  |  |  | 
6 | COc1ccc2c(c1)c1ccc3c(c1n2C)C(=O)C=CC3=O | 32.2 µM | 42.7 µM | > 56.3 µM | 35.7 µM | 66.5 µM | > 58.9 µM | 32.1 µM | 34.6 µM | 56.9 µM | 61.2 µM |  |  |  |  |  |  | 
7 | CC1CCCc2c1n[nH]c2CC1CC(=O)NC(=O)C1 (stereo unspecified) | > 100 µM |  | > 100 µM | > 100 µM | > 100 µM | > 100 µM | > 100 µM | > 100 µM | > 100 µM | > 100 µM |  |  |  |  |  |  | 
8 | Cn1cnc(SC2=CC(=O)C=C3S[C@H]4C[C@@]23c2c(c(O)c3c5c2=NCCC=5C=N3)N4)c1CC(N)C(=O)O (stereo partly specified) | 15.2 µM | 56.7 µM | 20.3 µM | 34.3 µM |  | 3.89 µM | 31.4 µM | 26.6 µM | 29.6 µM | 31.6 µM | 23.7 µM | 7.33 µM | 19.3 µM | 17.6 µM | 13.6 µM | 15.9 µM | 16.2 µM
